Assay results from ChEMBL document CHEMBL1201862, “PubChem BioAssay data set” (2004).
The source made the active and inactive calls.

Tests used:
[1] = molecular target: Transitional endoplasmic reticulum ATPase (Homo sapiens, UniProt P55072, C522A); test: C522A mutant p97 ATPase inhibitors, dose response, counter-screen for p97 inhibitor project, biochemical, luminescence (AID 1544)
[2] = molecular target: Transitional endoplasmic reticulum ATPase (Homo sapiens, UniProt P55072); test: p97 ATPase inhibitors, dose response, biochemical (AID 1534)
[3] = molecular target: T1, Eukaryotic translation initiation factor 2-alpha kinase 3 (Homo sapiens, UniProt Q9NZJ5); test: Counterscreen assay for PERK inhibitors: Dose response cell-based high throughput screening assay to measure inhibition of PERK at 6 hours. [Related pubchem assays: 1522, 1416 ]; type: functional
[4] = molecular target: T1, Eukaryotic translation initiation factor 2-alpha kinase 3; test: Dose response cell-based high-throughput screening assay to measure PERK inhibition. [Related pubchem assays: 1416 ]; type: functional
Staphylococcus aureus = test: Inhibitors of Bacterial Quorum Sensing Structure Activity Relationship (SAR) Analysis: Dose Response Assay. [Related pubchem assays: 700, 527 ]; type: functional, organism-based
[5] = molecular target: Heat shock 70 kDa protein 1A (Homo sapiens, UniProt P0DMV8); test: inhibition of Hsp70 binding activity – biochemical, fluorescence polarization, SAR follow-up (AID 1072)
[6] = molecular target: Glyceraldehyde-3-phosphate dehydrogenase (Homo sapiens, UniProt P04406)
[7] = molecular target: Heat shock cognate 71 kDa protein (Homo sapiens, UniProt P11142); test: In Vitro Hsc70 Dose Response Fluorescence Polarization Assay. [Related pubchem assays: 1072 ]
[8] = molecular target: Polyadenylate-binding protein 1 (Homo sapiens, UniProt P11940); test: blockers of PABP interaction with poly(A) – biochemical, fluorescence polarization, […] (AID 2014)
[9] = molecular target: Eukaryotic translation initiation factor 4H (Homo sapiens, UniProt Q15056); test: eIF4H binding inhibition – biochemical, uHTS, fluorescence polarization, translation initiation inhibitor project, primary screen (AID 2012)
[10] = alpha-synuclein stem-loop translation blockers – luminescence, H4 neuroglioblastoma cells, dose confirmation, confirmation (AID 2454); type: functional, cell-based;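 also: H4 neuroglioblastoma cells carrying an alpha-synuclein 5'UTR luciferase reporter; potency for inhibition of the luciferase signal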
[11] = luciferase reporter signal suppression in cells – H4 neuroglioma cells, luminescence, dose response (AID 1990); type: functional, cell-based
[12] = luciferase reporter signal reduction – luminescence, H4-C neuroglioblastoma cells, dose response (AID 2458); type: functional, cell-based;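 also: H4 neuroglioblastoma cells stably carrying a luciferase reporter gene fusion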
[13] = alpha-synuclein stem-loop luciferase translation blockers – H4 neuroglioma cells, luminescence, confirmation (AID 1988); type: functional, cell-based
cells = type: functional, cell-based
[14] = molecular target: Peroxisome proliferator-activated receptor gamma/Nuclear receptor corepressor 2 (Homo sapiens, UniProt P37231+Q9Y618); type: functional
[15] = molecular target: Photoreceptor-specific nuclear receptor (Homo sapiens, UniProt Q9Y5X4); type: functional;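 also: potency for compounds that break the NR2E3 corepressor complex and count as activators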
[16] = molecular target: T2, E3 ubiquitin-protein ligase XIAP (Homo sapiens, UniProt P98170); test: small molecules displacing peptide from XIAP – biochemical, IAP family, fluorescence polarization (AID 1018); type: functional
[17] = molecular target: T2, E3 ubiquitin-protein ligase XIAP; test: Counter Screen using XIAP-Bir3 for Chemical Antagonists of Bir1/2 domains of IAP-family anti-apoptotic proteins. [Related pubchem assays (depositor defined):AID1018, AID1449, AID1514, AID1638, AID1749, AID1750, AID488957, AID488963]
Chaperone protein dnaK = Chaperone protein dnaK (Escherichia coli, UniProt C3TRK2); test: E. coli DnaK binders, calorimetric Kd – biophysical, isothermal titration calorimetry, beta-domain, full-length DnaK, orthogonal assay for DnaK modulator project, SAR follow-up (AID 1495)
Cytochrome P450 2D6 = Cytochrome P450 2D6 (Homo sapiens, UniProt P10635); test: qHTS Assay for Inhibitors and Substrates of Cytochrome P450 2D6. [Related pubchem assays: 410 ]; type: ADME; details: read-out: Potency

T2 sequence (P98170 whole entry): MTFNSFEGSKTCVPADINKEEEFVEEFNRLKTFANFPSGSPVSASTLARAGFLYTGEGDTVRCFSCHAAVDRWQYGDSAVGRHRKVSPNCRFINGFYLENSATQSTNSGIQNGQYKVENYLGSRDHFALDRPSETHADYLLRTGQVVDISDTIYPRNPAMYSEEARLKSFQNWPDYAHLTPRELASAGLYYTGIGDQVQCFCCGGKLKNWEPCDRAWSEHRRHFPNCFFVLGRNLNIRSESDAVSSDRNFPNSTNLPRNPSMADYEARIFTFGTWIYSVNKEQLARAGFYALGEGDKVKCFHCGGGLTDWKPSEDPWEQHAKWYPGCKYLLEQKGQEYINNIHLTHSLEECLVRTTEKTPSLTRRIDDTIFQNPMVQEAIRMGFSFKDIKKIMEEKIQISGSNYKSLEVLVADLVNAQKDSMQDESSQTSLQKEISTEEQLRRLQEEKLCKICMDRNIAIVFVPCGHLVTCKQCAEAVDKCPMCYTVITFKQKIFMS
T1 sequence (Q9NZJ5 whole entry): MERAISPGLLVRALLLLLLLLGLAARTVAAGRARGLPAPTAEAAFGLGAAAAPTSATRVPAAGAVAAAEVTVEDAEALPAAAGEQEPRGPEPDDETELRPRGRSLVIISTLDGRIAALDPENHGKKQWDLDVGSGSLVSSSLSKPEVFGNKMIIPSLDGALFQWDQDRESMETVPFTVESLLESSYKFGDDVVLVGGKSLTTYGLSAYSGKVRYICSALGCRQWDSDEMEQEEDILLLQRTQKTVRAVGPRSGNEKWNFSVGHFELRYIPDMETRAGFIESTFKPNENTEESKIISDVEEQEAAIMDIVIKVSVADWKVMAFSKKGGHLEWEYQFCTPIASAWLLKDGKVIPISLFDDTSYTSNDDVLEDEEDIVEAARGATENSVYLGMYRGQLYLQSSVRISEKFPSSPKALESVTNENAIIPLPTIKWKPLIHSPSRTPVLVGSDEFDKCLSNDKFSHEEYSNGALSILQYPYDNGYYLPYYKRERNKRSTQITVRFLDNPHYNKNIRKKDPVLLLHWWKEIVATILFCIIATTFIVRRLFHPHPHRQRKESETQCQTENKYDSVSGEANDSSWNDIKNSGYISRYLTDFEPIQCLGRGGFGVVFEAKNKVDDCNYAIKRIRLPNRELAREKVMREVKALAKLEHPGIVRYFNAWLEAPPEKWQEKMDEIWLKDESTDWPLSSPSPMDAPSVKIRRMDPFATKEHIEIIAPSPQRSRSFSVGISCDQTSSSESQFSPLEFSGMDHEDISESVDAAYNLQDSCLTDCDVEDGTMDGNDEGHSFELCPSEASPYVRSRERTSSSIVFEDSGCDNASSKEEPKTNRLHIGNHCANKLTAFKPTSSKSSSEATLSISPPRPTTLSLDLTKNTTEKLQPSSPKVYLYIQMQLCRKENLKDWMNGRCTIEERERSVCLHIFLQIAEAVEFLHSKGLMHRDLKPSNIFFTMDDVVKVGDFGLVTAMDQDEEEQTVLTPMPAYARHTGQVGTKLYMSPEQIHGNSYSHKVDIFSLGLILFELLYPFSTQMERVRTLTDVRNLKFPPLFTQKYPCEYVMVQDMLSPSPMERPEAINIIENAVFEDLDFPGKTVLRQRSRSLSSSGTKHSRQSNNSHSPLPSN
Sequence of Peroxisome proliferator-activated receptor gamma/Nuclear receptor corepressor 2 (P37231 whole entry): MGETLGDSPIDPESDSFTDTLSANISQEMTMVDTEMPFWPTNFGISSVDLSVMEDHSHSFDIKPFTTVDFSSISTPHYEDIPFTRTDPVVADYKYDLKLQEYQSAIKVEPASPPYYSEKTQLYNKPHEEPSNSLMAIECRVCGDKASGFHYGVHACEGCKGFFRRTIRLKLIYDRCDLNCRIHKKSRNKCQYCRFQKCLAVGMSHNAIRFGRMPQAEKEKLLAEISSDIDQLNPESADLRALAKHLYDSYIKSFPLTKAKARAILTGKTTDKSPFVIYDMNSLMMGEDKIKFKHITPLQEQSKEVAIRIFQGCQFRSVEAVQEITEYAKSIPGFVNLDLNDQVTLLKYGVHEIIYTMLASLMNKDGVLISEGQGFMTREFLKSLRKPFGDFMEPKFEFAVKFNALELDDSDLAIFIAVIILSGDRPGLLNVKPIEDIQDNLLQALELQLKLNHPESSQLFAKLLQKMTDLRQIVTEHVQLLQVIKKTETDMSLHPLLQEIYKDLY
Sequence of Peroxisome proliferator-activated receptor gamma/Nuclear receptor corepressor 2 (Q9Y618 whole entry): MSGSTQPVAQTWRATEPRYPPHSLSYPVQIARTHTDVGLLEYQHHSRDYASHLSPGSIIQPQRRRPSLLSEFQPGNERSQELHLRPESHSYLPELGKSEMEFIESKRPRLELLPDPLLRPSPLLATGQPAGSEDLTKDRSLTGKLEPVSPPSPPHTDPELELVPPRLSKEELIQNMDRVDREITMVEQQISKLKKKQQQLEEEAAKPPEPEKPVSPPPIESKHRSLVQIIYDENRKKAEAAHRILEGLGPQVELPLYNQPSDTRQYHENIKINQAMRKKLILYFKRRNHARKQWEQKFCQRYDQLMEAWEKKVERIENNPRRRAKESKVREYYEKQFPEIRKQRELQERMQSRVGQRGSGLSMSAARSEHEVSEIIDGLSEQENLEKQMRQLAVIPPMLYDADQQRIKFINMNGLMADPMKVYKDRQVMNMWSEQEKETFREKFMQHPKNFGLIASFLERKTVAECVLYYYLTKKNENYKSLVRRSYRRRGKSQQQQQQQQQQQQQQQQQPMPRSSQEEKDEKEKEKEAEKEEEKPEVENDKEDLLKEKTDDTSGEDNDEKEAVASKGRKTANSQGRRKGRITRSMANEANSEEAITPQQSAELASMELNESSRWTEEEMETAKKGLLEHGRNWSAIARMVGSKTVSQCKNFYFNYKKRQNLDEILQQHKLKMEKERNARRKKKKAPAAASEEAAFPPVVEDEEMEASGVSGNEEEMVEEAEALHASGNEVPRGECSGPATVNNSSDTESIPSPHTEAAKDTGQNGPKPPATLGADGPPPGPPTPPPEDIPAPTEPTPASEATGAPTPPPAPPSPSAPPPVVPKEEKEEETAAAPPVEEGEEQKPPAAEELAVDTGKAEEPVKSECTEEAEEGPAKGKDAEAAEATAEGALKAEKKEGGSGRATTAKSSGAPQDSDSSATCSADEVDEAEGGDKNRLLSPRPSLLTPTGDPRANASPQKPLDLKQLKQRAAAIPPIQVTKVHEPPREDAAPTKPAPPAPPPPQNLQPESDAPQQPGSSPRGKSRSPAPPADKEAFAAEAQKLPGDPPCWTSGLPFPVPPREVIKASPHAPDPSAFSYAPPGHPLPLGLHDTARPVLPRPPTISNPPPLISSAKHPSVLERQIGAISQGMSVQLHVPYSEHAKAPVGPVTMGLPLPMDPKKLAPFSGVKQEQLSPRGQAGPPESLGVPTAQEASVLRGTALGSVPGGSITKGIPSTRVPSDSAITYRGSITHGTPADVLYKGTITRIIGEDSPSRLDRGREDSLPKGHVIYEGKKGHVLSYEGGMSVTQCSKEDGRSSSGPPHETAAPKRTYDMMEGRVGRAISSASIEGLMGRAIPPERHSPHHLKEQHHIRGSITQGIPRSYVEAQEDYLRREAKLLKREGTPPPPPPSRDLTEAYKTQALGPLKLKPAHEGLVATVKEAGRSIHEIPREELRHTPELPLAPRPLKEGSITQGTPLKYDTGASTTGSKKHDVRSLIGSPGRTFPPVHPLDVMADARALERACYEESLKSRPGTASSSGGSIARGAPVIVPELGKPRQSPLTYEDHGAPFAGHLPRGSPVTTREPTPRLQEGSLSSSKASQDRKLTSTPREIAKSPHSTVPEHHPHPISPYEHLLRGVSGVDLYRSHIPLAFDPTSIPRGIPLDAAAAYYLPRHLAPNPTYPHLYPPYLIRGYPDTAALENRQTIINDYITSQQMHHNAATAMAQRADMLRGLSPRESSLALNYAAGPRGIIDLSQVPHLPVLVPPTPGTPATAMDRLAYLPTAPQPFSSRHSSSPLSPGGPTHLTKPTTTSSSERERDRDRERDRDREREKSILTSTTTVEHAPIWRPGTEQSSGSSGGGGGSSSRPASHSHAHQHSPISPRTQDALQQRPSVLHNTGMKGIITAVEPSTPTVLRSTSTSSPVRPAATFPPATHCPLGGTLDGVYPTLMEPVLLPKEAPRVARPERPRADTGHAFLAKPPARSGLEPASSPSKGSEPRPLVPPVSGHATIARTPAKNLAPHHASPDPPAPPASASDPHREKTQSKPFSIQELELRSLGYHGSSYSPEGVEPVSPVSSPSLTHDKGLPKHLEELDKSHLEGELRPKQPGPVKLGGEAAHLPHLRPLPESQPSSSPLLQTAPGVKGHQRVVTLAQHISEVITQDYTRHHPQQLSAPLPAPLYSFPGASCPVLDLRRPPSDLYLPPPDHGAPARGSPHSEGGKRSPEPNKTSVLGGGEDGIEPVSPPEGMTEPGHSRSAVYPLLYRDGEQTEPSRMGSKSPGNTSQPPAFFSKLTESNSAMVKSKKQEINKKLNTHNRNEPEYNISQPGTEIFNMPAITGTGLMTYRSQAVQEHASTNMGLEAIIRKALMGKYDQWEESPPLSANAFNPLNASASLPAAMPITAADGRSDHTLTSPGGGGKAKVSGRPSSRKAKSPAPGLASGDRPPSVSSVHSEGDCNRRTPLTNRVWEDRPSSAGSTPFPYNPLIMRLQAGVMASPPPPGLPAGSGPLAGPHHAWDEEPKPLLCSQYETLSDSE
Sequence of Photoreceptor-specific nuclear receptor (Q9Y5X4 whole entry): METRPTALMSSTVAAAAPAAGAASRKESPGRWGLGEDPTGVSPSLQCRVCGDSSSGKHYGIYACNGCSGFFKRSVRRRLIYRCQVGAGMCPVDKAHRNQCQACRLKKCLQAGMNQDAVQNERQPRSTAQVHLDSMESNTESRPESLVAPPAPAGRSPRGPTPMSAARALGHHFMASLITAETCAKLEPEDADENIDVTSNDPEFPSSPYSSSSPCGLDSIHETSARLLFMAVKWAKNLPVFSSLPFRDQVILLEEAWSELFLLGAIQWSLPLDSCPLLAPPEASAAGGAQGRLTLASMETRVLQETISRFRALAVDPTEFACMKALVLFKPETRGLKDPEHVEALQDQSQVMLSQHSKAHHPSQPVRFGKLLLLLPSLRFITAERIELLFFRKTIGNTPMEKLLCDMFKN

**Q.** For `COC(=O)c1ccccc1NC(=S)NC(=O)c1ccccc1C`, which IC50 [1] is on record?
**A.** Its IC50 is > 50 µM (not active).

**Q.** And the IC50 [2]?
**A.** The IC50 was > 50 µM (not active).

**Q.** Which results are given for `CCC(C(=O)Nc1cccc(C(=O)O)c1C)c1ccccc1` (stereo unspecified)?
**A.** EC50 [3]: > 55.7 µM (not active); EC50 [4]: > 55.7 µM (not active)

**Q.** With `O=C(Nc1ccc2c(c1)OCO2)C(c1ccccc1)N1CCCCC1` (stereo unspecified) as the compound, how does the IC50 (Staphylococcus aureus) read?
**A.** The IC50 was 1.26 µM (active).

**Q.** With `O=C(Nc1ccc2c(c1)C1C=CCC1C(C(=O)O)N2)c1ccc(Cl)cc1Cl` (stereo unspecified) as the compound, how does the IC50 [5] read?
**A.** The IC50 was > 100 µM (not active).

**Q.** And the IC50 [6]?
**A.** Its IC50 is > 100 µM (not active).

**Q.** And the IC50 [7]?
**A.** Its IC50 is > 100 µM (not active).

**Q.** With `CC(C)C(OC(=O)c1ccco1)C(=O)NCc1ccco1` (stereo unspecified) as the compound, how does the IC50 [8] read?
**A.** The IC50 was > 100 µM (inactive).

**Q.** What about the IC50 [9] of the same compound?
**A.** Its IC50 is 58 µM (active).

**Q.** With `O=Cc1cn(Cc2ccc(F)cc2)c2ccccc12` as the compound, how does the EC50 [10] read?
**A.** The EC50 was > 12 µM (inconclusive).

**Q.** What about the EC50 [11] of the same compound?
**A.** The EC50 was 7.56 µM (active).

**Q.** And the EC50 [12]?
**A.** Its EC50 is 1.85 µM (active).

**Q.** What about the EC50 [13] of the same compound?
**A.** The EC50 was < 0.1 µM (active).

**Q.** And the EC50 (cells)?
**A.** The EC50 was 1.05 µM (active).

**Q.** What does the source list for `Cc1cccc(-n2c(=S)[nH]c3c(oc4ccccc43)c2=O)c1`?
**A.** IC50 [14]: 6.64 µM (active); IC50 [15]: 5.11 µM (active); IC50 [16]: > 100 µM (not active); IC50 [17]: > 100 µM (inactive)

**Q.** Which Kd (Chaperone protein dnaK) does the source give for `O=C(NCc1cc(Cl)cc(Cl)c1)c1cccs1` here?
**A.** Its Kd is 2.8 µM (active).

**Q.** Which AC50 (Cytochrome P450 2D6) does the source give for `CCN1CCC[C@@H]1CNC(=O)c1cc(S(N)(=O)=O)ccc1OC` here?
**A.** Its AC50 is 39.8 µM (inconclusive).
